Data set [1] is described as follows: logP by HPLC, reversed-phase column (C 18), EEC Directive 79/831 Annex V.A8. The class given is physicochemical. The settings on record: reversed-phase HPLC column (C 18), acidic range pH 2.3, 0.1% aqueous phosphoric acid/acetonitrile gradient, 43° C. The protocol:
The logP values given in the preparation examples and tables above are determined in accordance with EEC Directive 79/831 Annex V.A8 by HPLC (High Performance Liquid Chromatography) using a reversed-phase column (C 18). Temperature: 43° C. The determination is carried out in the acidic range at pH 2.3 using the mobile phases 0.1% aqueous phosphoric acid and acetonitrile; linear gradient from 10% acetonitrile to 90% acetonitrile. The calibration is carried out using unbranched alkan-2-ones (having 3 to 16 carbon atoms), with known logP values (determination of the logp values by the retention times using linear interpolation between two successive alkanones).

Data set [2] concerns Altemaria solani. The experiment in a line: Alternaria test (tomato)/protective. The settings on record: protective, application rate 750 g/ha, evaluation 7 days after inoculation. Format: in vivo. The protocol:
(§1) To produce a suitable preparation of active compound, 1 part by weight of active compound is mixed with the stated amounts of solvent and emulsifier, and the concentrate is diluted with water to the desired concentration.
To test for protective activity, young tomato plants are sprayed with the preparation of active compound at the stated application rate. 1 day after the treatment, the plants are inoculated with a spore suspension of Altemaria solani and then remain at 100% rel. humidity and 20° C. for 24 h. The plants then remain at 96% rel. atmospheric humidity and a temperature of 20° C.
Evaluation was carried out 7 days after the inoculation. 0% means an efficacy which corresponds to that of the control, whereas an efficacy of 100% means that no infection is observed.

Data set [3] concerns Podosphaera leucotricha. Description: Podosphaera test (apple)/protective. The class given is in vivo. Particulars: protective, application rate 100 g/ha, evaluation 10 days after inoculation. The protocol: as §1
To test for protective activity, young plants are sprayed with the preparation of active compound at the stated application rate. After the spray coating has dried on, the plants are inoculated with an aqueous spore suspension of the apple mildew pathogen Podosphaera leucotricha. The plants are then placed in a greenhouse at about 23° C. and a relative atmospheric humidity of about 70%.
Evaluation is carried out 10 days after the inoculation. 0% means an efficacy which corresponds to that of the control, whereas an efficacy of 100% means that no infection is observed.

The test system of data set [4] is Pyrenophora teres. The experiment in a line: Pyrenophora teres test (barley)/protective. Particulars: protective, application rate 250 g/ha, evaluation 7 days after inoculation. Format: in vivo. As for the experimental part: To produce a suitable preparation of active compound, 1 part by weight of active compound is mixed with the stated amount of solvent and emulsifier, and the concentrate is diluted with water to the desired concentration.
To test for protective activity, young plants are sprayed with the preparation of active compound at the stated application rate. After the spray coating has dried on, the plants are sprayed with a conidia suspension of Pyrenophora teres. The plants remain in an incubation cabin at 20° C. and 100% relative atmospheric humidity for 48 hours.
The plants are then placed in a greenhouse at a temperature of about 20° C. and a relative atmospheric humidity of about 80%.
Evaluation is carried out 7 days after the inoculation. 0% means an efficacy which corresponds to that of the control, whereas an efficacy of 100% means that no infection is observed.

As usually defined, the chromatographic logP is a lipophilicity value derived from retention on a column. Read a high chromatographic logP as higher lipophilicity. Regarding `CCCCCC(C)c1ccccc1NC(=O)c1c(C)nn(C)c1F` (stereo not shown) [Example I-22], in data set [1], the chromatographic logP came out at 3.83. In the case of `CCCC(C)c1ccccc1NC(=O)c1c(C)nn(C)c1F` (stereo not shown) [drawing 101], the Efficacy in % in data set [2] worked out at 95%.

Regarding `C=C(C)c1ccccc1NC(=O)c1c(C)nn(C)c1F` [Example I-23], the chromatographic logP in data set [1] was found to be 2.57. In data set [3], `Cc1nn(C)c(F)c1C(=O)Nc1ccccc1C(C)C(C)C` (stereo not shown) [drawing 99] came in with an Efficacy in % of 100%. Take `Cc1nn(C)c(F)c1C(=O)Nc1ccccc1C(C)C(C)C` (stereo not shown) [Example I-18]: the chromatographic logP in data set [1] was determined as 2.92. The molecule `Cc1nn(C)c(F)c1C(=O)Nc1ccccc1C(C)CCC(C)C` (stereo not shown) [Example I-36] registered a chromatographic logP in data set [1] of 3.76. On the same count and under the same terms, the result for `CCC(CC)c1ccccc1NC(=O)c1c(C)nn(C)c1F` [Example 2, N-[2-(1-ethylpropyl)phenyl]-5-fluoro-1,3-dimethyl-1H-pyrazol-4-carboxamide] reads 3.01.

With `Cc1nn(C)c(F)c1C(=O)Nc1ccccc1C(C)CC(C)C` (stereo not shown) [drawing 103], the Efficacy in % in data set [2] stood at 100%. As for `C=C(c1ccccc1NC(=O)c1c(C)nn(C)c1F)C(C)C` [Example I-10], the chromatographic logP in data set [1] worked out at 3.37. On the same count and under the same terms, in the case of `Cc1nn(C)c(F)c1C(=O)Nc1ccccc1C(C)CC1CCCC1` (stereo not shown) [Example I-27] it was 3.82; in that of `CCCC(C)CC(C)c1ccccc1NC(=O)c1c(C)nn(C)c1F` (stereo not shown) [Example I-35], 4.11.

The molecule `Cc1nn(C)c(F)c1C(=O)Nc1ccc(Cl)cc1C(C)CC(C)C` (stereo not shown) [Example I-25] had a chromatographic logP in data set [1] of 3.82. In the case of `Cc1nn(C)c(F)c1C(=O)Nc1ccccc1C(C)C(C)C` (stereo not shown) [drawing 102], the Efficacy in % in data set [2] is listed as 95%. `Cc1nn(C)c(F)c1C(=O)Nc1c(F)cccc1C(C)CC(C)C` (stereo not shown) [Example I-44] displayed a chromatographic logP in data set [1] of 3.16.

For the molecule `CCCC(C)c1cc(F)ccc1NC(=O)c1c(C)nn(C)c1F` (stereo not shown) [Example I-43], in data set [1], the chromatographic logP is 3.05. Still for that read-out and setting: the result for `C=C(c1cc(Cl)ccc1NC(=O)c1c(C)nn(C)c1F)C(C)C` [Example I-16] reads 4.11; that for `C/C=C(\CC)c1ccccc1NC(=O)c1c(C)nn(C)c1F` [Example I-24], 3.45.

In data set [1], `CCC(C)CC(C)c1ccccc1NC(=O)c1c(C)nn(C)c1F` (stereo not shown) [Example I-26] yielded a chromatographic logP of 3.67. On the same count and under the same terms, the result for `CCCC(CC)c1ccccc1NC(=O)c1c(C)nn(C)c1F` (stereo not shown) [Example I-32] reads 3.42. Consider `Cc1nn(C)c(F)c1C(=O)Nc1ccccc1C#CCC1CCCCC1` [Example I-52], for which, in data set [1], the chromatographic logP is 5.08. In turn, `Cc1nn(C)c(F)c1C(=O)Nc1ccccc1C(C)(O)CC(C)C` (stereo not shown) [IV-6] came in with a chromatographic logP in data set [1] of 2.68.

In data set [1], `CCCC/C=C(\C)c1ccccc1NC(=O)c1c(C)nn(C)c1F` [Example 5, 5-fluoro-1,3-dimethyl-N-[2-(1-methyl-1-hexenyl)phenyl]-1H-pyrazol-4-carboxamide] had a chromatographic logP of 4.36. For the molecule `Cc1nn(C)c(F)c1C(=O)Nc1ccccc1C(C)C1CCCCC1` (stereo not shown) [Example I-42], in data set [1], the chromatographic logP turned out to be 3.82. On the same count and under the same terms, in the case of `CCC(c1ccccc1NC(=O)c1c(C)nn(C)c1F)C(C)C` (stereo not shown) [Example I-38] it was 3.37. The molecule `Cc1nn(C)c(F)c1C(=O)Nc1ccccc1C#CC(C)C` [Example I-53] showed a chromatographic logP in data set [1] of 3.59.

`Cc1nn(C)c(F)c1C(=O)Nc1ccccc1C(C)CC1CCCCC1` (stereo not shown) [Example I-45] yielded a chromatographic logP in data set [1] of 4.2. With `CCCCCC(C)(O)c1ccccc1NC(=O)c1c(C)nn(C)c1F` (stereo not shown) [IV-3], in data set [1], the chromatographic logP was 3.13. The same measure, in the same setting: in the case of `Cc1nn(C)c(F)c1C(=O)Nc1ccccc1C=CC1CC1(F)F` (stereo not shown) [Example 4, N-{2-[2-(2,2-difluorocyclopropyl)ethenyl]-phenyl}-5-fluoro-1,3-dimethyl-1H-pyrazol-4-carboxamide] it was 2.59; in that of `C=Cc1ccccc1NC(=O)c1c(C)nn(C)c1F` [Example I-20], 1.92. The same measure, in the same setting: the result for `Cc1nn(C)c(F)c1C(=O)Nc1ccccc1I` [Example V-1, 5-fluoro-N-(2-iodophenyl)-1,3-dimethyl-1H-pyrazol-4-carboxamide] reads 2.44; that for `CCCC(C)c1ccccc1NC(=O)c1c(C)nn(C)c1F` (stereo not shown) [Example I-17], 3.01. As for `CCC(C)C(CC)c1ccccc1NC(=O)c1c(C)nn(C)c1F` (stereo not shown) [Example I-29], the chromatographic logP in data set [1] came out at 3.74. On the same count and under the same terms, in the case of `Cc1nn(C)c(F)c1C(=O)Nc1ccccc1C(C)(F)CCCCCl` (stereo not shown) [Example I-47] it was 4.01. With `C=C(c1ccccc1NC(=O)c1c(C)nn(C)c1F)C(C)C` [drawing 97], in data set [3], the Efficacy in % worked out at 90%. The molecule `CCC(C)C(C)(F)c1ccccc1NC(=O)c1c(C)nn(C)c1F` (stereo not shown) [Example I-48] displayed a chromatographic logP in data set [1] of 3.44. In data set [1], `Cc1nn(C)c(F)c1C(=O)Nc1ccccc1C(C)(F)C(C)C` (stereo not shown) [Example I-46] gave a chromatographic logP of 3.09.

In data set [1], `CCC(O)(CC)c1ccccc1NC(=O)c1c(C)nn(C)c1F` [IV-1, N-[2-(1-ethyl-1-hydroxypropyl)phenyl]-5-fluoro-1,3-dimethyl-1H-pyrazol-4-carboxamide] gave a chromatographic logP of 2.47.

Molecule `Cc1nn(C)c(F)c1C(=O)Nc1ccccc1C(C)CCCC(C)C` (stereo not shown) [Example I-34] had a chromatographic logP in data set [1] of 4.22. For `CCC(O)(CC(C)C)c1ccccc1NC(=O)c1c(C)nn(C)c1F` (stereo not shown) [IV-13], the chromatographic logP in data set [1] came out at 3.11.

In the case of `CC(C)=CC(C)CCC(C)c1ccccc1NC(=O)c1c(C)nn(C)c1F` (stereo not shown) [Example I-37], the chromatographic logP in data set [1] is 4.49. The same measure, in the same setting: in the case of `Cc1nn(C)c(F)c1C(=O)Nc1ccc(Cl)cc1C(C)(O)C(C)C` (stereo not shown) [IV-12] it was 2.99.

Consider `Cc1nn(C)c(F)c1C(=O)Nc1ccccc1C(C)C(C)C` (stereo not shown) [drawing 96], for which, in data set [4], the Efficacy in % came out at 100%.

As for `Cc1nn(C)c(F)c1C(=O)Nc1ccc(Cl)cc1C(C)C(C)C` (stereo not shown) [Example I-19], the chromatographic logP in data set [1] is 3.43. On the same count and under the same terms, the result for `Cc1nn(C)c(F)c1C(=O)Nc1c(C(C)CC(C)C)cccc1C(C)CC(C)C` (stereo not shown) [Example I-54] reads 4.9; that for `Cc1nn(C)c(F)c1C(=O)Nc1ccccc1C(C)(O)C(C)C` (stereo not shown) [IV-5], 2.41; that for `CCCCCCCCC(C)c1ccccc1NC(=O)c1c(C)nn(C)c1F` (stereo not shown) [Example I-30], 5.29. Take `Cc1nn(C)c(F)c1C(=O)Nc1ccc(Cl)cc1C(C)C(C)C` (stereo not shown) [drawing 100]: the Efficacy in % in data set [3] is listed as 100%. With `Cc1nn(C)c(F)c1C(=O)Nc1ccccc1C(C)CC(C)C` (stereo not shown) [Example I-21], in data set [1], the chromatographic logP came to 3.26.

In turn, `Cc1nn(C)c(F)c1C(=O)Nc1ccccc1C(C)(F)CC(C)C` (stereo not shown) [Example I-49] registered a chromatographic logP in data set [1] of 3.47. On the same count and under the same terms, the result for `CCCC(C)(O)c1ccccc1NC(=O)c1c(C)nn(C)c1F` (stereo not shown) [IV-2] reads 2.4. Regarding `CCCC(C)c1ccccc1NC(=O)c1c(C)nn(C)c1F` (stereo not shown) [drawing 98], the Efficacy in % in data set [3] came to 100%. In turn, `C=C(c1ccccc1NC(=O)c1c(C)nn(C)c1F)C1CCCCC1` [Example I-9] had a chromatographic logP in data set [1] of 4.36. On the same count and under the same terms, in the case of `CC(=O)c1ccccc1NC(=O)c1c(C)nn(C)c1F` [VIII-1, N-(2-acetylphenyl)-5-fluoro-1,3-dimethyl-1H-pyrazol-4-carboxamide] it was 2.15.

`CCCCC(c1ccccc1NC(=O)c1c(C)nn(C)c1F)C(C)C` (stereo not shown) [Example I-39] had a chromatographic logP in data set [1] of 4.24. `CCC(CC(C)C)c1ccccc1NC(=O)c1c(C)nn(C)c1F` (stereo not shown) [Example I-28] gave a chromatographic logP in data set [1] of 3.73. Still for that read-out and setting: in the case of `Cc1nn(C)c(F)c1C(=O)Nc1ccc(F)cc1C(C)CC(C)C` (stereo not shown) [Example I-41] it was 3.32; in that of `Cc1nn(C)c(F)c1C(=O)Nc1ccccc1C(C)(O)C1CCCCC1` (stereo not shown) [IV-4], 3.1. Turning to `CCCC(C)c1cccc(F)c1NC(=O)c1c(C)nn(C)c1F` (stereo not shown) [Example I-50], the chromatographic logP in data set [1] turned out to be 2.86. On the same count and under the same terms, the result for `CCCCC(CC)c1ccccc1NC(=O)c1c(C)nn(C)c1F` (stereo not shown) [Example I-31] reads 3.85; that for `CCC(C)C(C)c1ccccc1NC(=O)c1c(C)nn(C)c1F` (stereo not shown) [Example I-40], 3.28. Still for that read-out and setting: the result for `CCC(c1ccccc1NC(=O)c1c(C)nn(C)c1F)C1CCCCC1` (stereo not shown) [Example I-33] reads 4.34.

Values taken from patent US7538073B2, “Pyrazoylcarboxanilides as fungicides” (Bayer CropScience AG, priority 2001, dated 2009).
